Experimental data as given in PMC10569036.

Experiments:
[1] = shake flask on a mixture of 185; loss from the water phase only; LC-QTOF peak areas; conditions: room
[2] = shake flask on a mixture of 185; loss from the water phase only; LC-Orbitrap peak areas; conditions: room

| log partition 1-octanol / HPLC water, unbuffered, traces of methanol / DMSO [2] [log10] | log partition butyl acetate / HPLC water, unbuffered, traces of methanol / DMSO [2] [log10] | log partition chloroform / HPLC water, unbuffered, traces of methanol / DMSO [2] [log10] | log partition cyclohexane / HPLC water, unbuffered, traces of methanol / DMSO [2] [log10] | log partition dichloromethane / HPLC water, unbuffered, traces of methanol / DMSO [2] [log10] | log partition n-hexane / HPLC water, unbuffered, traces of methanol / DMSO [2] [log10] | log partition n-octane / HPLC water, unbuffered, traces of methanol / DMSO [2] [log10] | log partition n-undecane / HPLC water, unbuffered, traces of methanol / DMSO [2] [log10] | log partition oleylalcohol / HPLC water, unbuffered, traces of methanol / DMSO [2] [log10] | log partition toluene / HPLC water, unbuffered, traces of methanol / DMSO [2] [log10] | SMILES | log partition 1-octanol / HPLC water, unbuffered, traces of methanol / DMSO [1] [log10] | log partition butyl acetate / HPLC water, unbuffered, traces of methanol / DMSO [1] [log10] | log partition chloroform / HPLC water, unbuffered, traces of methanol / DMSO [1] [log10] | log partition cyclohexane / HPLC water, unbuffered, traces of methanol / DMSO [1] [log10] | log partition dichloromethane / HPLC water, unbuffered, traces of methanol / DMSO [1] [log10] | log partition n-hexane / HPLC water, unbuffered, traces of methanol / DMSO [1] [log10] | log partition n-octane / HPLC water, unbuffered, traces of methanol / DMSO [1] [log10] | log partition n-undecane / HPLC water, unbuffered, traces of methanol / DMSO [1] [log10] | log partition oleylalcohol / HPLC water, unbuffered, traces of methanol / DMSO [1] [log10] | log partition toluene / HPLC water, unbuffered, traces of methanol / DMSO [1] [log10] |
| --- | --- | --- | --- | --- | --- | --- | --- | --- | --- | --- | --- | --- | --- | --- | --- | --- | --- | --- | --- | --- |
| 3.526 | 2.502 | 1.196 | -1.221 | 1.153 | -1.633 | -1.139 | -1.372 | 2.478 | -0.2525 | CCOc1ccc2[nH]cc(C(=O)NCc3ccccc3)c(=O)c2n1 | 2.233 | 1.386 | 2.411 | -1.713 | 1.249 | -1.238 | -1.123 | -1.345 | 2.032 | -0.4984 |
| 1.665 | 2.111 | 0.8448 | -0.5373 | 1.668 | -1.173 | -0.7644 | -1.267 | 1.444 | 0.1696 | O=C(c1ccccc1)c1ccc(O)cc1O | 2.033 | 2.368 | 1.568 | -0.7702 | 1.235 | -0.7955 | -0.8875 | -0.7905 | 1.696 | 1.076 |
| 2.462 | 2.969 | 1.414 | – | 3 | – | – | – | 2.211 | 2.779 | C#CC(C)(C)NC(=O)c1cc(Cl)cc(Cl)c1 | 2.331 | 2.368 | 2.908 | – | 2.85 | – | – | – | 2.008 | 2.121 |
